We go through 14 molecules from patent US20060183696A1, “Use of immune cell specific conjugates for treatment of inflammatory diseases of gastrointestinal tract” (Pliva-Istrazivacki Institut d.o.o., priority 2004, published 2006).

Where two headings read alike, the source gives them in different places.

The test system of one series is TNBS induced colitis. Description: TNBS-induced inflammatory bowel disease (colitis) in rats. It counts as in vivo, rat. As to the method: Colitis is induced in male Wistar rats by intracolonic administration of 10-50 mg of TNBS in 0.25 ml of 50% ethanol. Two days prior to administration of TNBS animals are treated with various doses of sterolide (initially ranging from 0.5 to 10 mg/kg of the compound in 0.125% carboxymethyl cellulose in phosphate buffered saline and 1% DMSO) or vehicle control (0.125% carboxymethyl cellulose in phosphate buffered saline and 1% DMSO) or standard steroid such as for example budesonide (1 mg/kg) for 14 days after the TNBS is applied. Rats were sacrificed, blood samples werewere taken (at day 7 and 15 after application of TNBS) to obtain serum samples followed by macroscopic observation and histological evaluation to determine the degree of colonic inflammation. Macroscopic and histological evaluation of tissue damage was done blindly by pathologist. The criteria for assessing macroscopic damage and the numerical rating score are as follows: 0, no damage; 1, localized hyperemia and/or edema; 2, linear ulcer<half of the width of the colon; 3, linear ulcer>half of the width of the colon; 4, small circular ulcer (<1 cm); 5, circular ulcer between 1 and 2 cm; 6, circular ulcer>2 cm. Scores from individual animals were added together and divided by number of animals to get average […] damage. For histological evaluation of colonic injury, each colon is blindly scored according to the following criteria: A) Ulceration: 0, no ulcer, epithelization; 1, small ulcer<3 mm; 2, large ulcer>3 mm; B) Inflammation: 0, no inflammation; 1, mild; 2, moderate; 3, severe; C) Depth of lesion: 0, none; 1, submucosa; 2, muscularis propria; 3, serosa; D) Necrosis: 0, none; 1, mild; 2, severe; E) Granulomas: No, no granulomas; Yes, granulomas present. Maximum score, defined as a sum of all individual scores in this scoring system is 10+granulomas. In some experiments Lekotriene B4 (LTB4) and serum α1 acidic glycoprotein were also measured as an additional indicator of inflammatory activity. Likewise, in selected experiments full thickness specimens from inflamed tissue adjacent to the ulcerated area are excised for measurement of myeloperoxidase (MPO) activity.
Improvement in this experiment is defined by the lower average macroscopic damage and lower histological score, as well as lowering of LTBB4, serum α1 acidic glycoprotein and MPO activity in sterolide treated then in the group of […] (animals receiving vehicle alone).
FIG. 1A describes the macroscopic damage score of the colon in the rat model of TNBS induced colitis (Mann-Whitney Test). The macroscopic damage score of the colon is defined as 0—no damage; 1—localized hyperemia and/or edema; 2—linear ulcer<half of the width of the colon; 3—linear>half the width of the colon or small ulcer (<1 cm) 4—circular ulcer<1 cm; 5—circular between 1 and 2 cm; and 6—circular ulcer>2 cm. The compounds 1′, 2′ and 3′ as shown in the table below were compared against budesonide [a known drug useful for the treatment of Crohn's disease in humans] as a treatment control and just a vehicle as a no treatment control. The no treatment control gave a score of 4 while the treatment control, budesonide, at a dosage of 1 mg/kg gave a score of 2.
FIG. 1B describes effect of conjugates on histological damage score in TNBS induced colitis in rats (Mann-Whitney Test). The histological damage score is defined according to the following criteria: A) Ulceration: 0, no ulcer, epithelization; 1, small ulcer<3 mm; 2, large ulcer>3 mm; B) Inflammation: 0, no inflammation; 1, mild; 2, moderate; 3, severe; C) Depth of lesion: 0, none; 1, submucosa; 2, muscularis propria; 3, serosa; D) Necrosis: 0, none; 1, mild; 2, severe; E) Granulomas: No, no granulomas; Yes, granulomas present. Maximum score, defined as a sum of all individual scores in this scoring system is 10+granulomas. […]

A short description of a further series: in vivo. The note with it: male, BALB/CJ, mouse.
Series [1] can be described thus: AUC of compounds tested in mice or rats. Details: concentration or dose not given beside the values. The note with it: in vivo, po. As to the method:
The area under the curve (AUC) is calculated as: [formula] where n is the number of data points
AUC∞=AUC(0−t)+Cn/λz, where Cn is the last concentration and λz is the elimination rate constant (estimated from the later portion of the plasma/blood concentration vs. time profiles).

The conditions of series [2]: rat, in vivo; for Amounts detected in plasma and blood: po.
Method: (§1) Male Sprague-Dawley rats weighing approximately 200 g were used. After weighing, each rat was given an earmark and placed into a cage. The day before the beginning of the study, animals were randomly distributed into 5 groups with 5 rats/group and placed into solid bottom cages, on wood dust-free bedding (VRF-1 Rodent's diet, Altromin Gmbh). During the experiment, the rats were maintained on a 12-h light-dark cycle. The rats were weighed and fasted for 12 hours prior to p.o. administration.
(§2) Compound 5 was administered p.o. in 0.125% carboxymethyl cellulose suspension. The dissolved substance was administered oral at a dose of 30 mg/kg body weight (b.w.), using 2.5 mL syringe (BD) and metal gavage. The administered volume was 10 mL/kg b.w.
(§3) Plasma and blood samples were obtained at the following time points after administration: 15, 30, 60, 120, 240, 360 and 480 minutes.
(§4) Blood samples were collected by puncturing the lateral tail vein. Prior to each blood sampling, animals were maintained in warming cabinets at 37° C. for 15 minutes. At each sampling time-point 50 μL of blood were collected and added to an Eppendorf test tube (1.5 mL) containing 50 μL demi water. Blood was collected according the time points stated in the protocol. Specimens were stored at −20° C. until analysis.
(§5) The concentrations of a compound 5 in the biological matrices were determined by a high performance liquid chromatography method using an acetonitrile and water (acidified by 0.1% formic acid) gradient as the chromatographic medium with tandem mass spectrometry detection (HPLC/MS-MS) (Guidance for Industry, Bioanalytical Method Validation, U.S. Department of Health and Human Services, Food and Drug Administration, May 2001).
(§6) Biological samples were prepared by deproteinization with acetonitrile, containing an internal standard. After centrifugation and evaporation of the supernatant fraction, samples were reconstituted in acetonitrile:water with addition of 0.1% formic acid.
(§7) HPLC separation was performed on a reverse phase C18 analytical column (Phenomenex C18(2)m 50×2 mm (3 μm) No 182700-5) with a guard column, maintained at ambient temperature, using a gradient of water:acetonitrile [0 min-1 min 10% acetonitrile, 2.5-3.5 minutes 80% acetonitrile, 3.5-5.6 min 10% acetonitrile with addition of 0.1% formic acid at flow rate 0.3 ml/min
(§8) MS-MS detection was performed in multi-resolution mode (MRM).
(§9) The concentration of the administered compound in biological matrices are calculated by the peak area ratios of compound 5 to an internal standard of roxithromycin using calibration curves and quality control samples.
(§10) The pharmacokinetic parameters were calculated using the PK solutions 2.0 software (Summit Research Services, Pharmacokinetics and Metabolism Software).
(§11) The pharmacokinetic parameters were calculated as disclosed herein to obtain the bioavailability wherein F=(AUC p.o.(0−∞)/AUC i.v. (0−∞))/(Di.v./Dp.o.).
A short description of series [3]: Oral bioavailability in rats (p.o. vs i.v., HPLC/MS-MS). The note with it: rat, in vivo.
Method: as §1, §2, §3, §4, §5, §6, §7, §8, §9, §10, §11
The conditions of series [4]: mouse, in vivo.
Method: (§12) For I.N. and P.O. administration the substance was dissolved in DMSO. 0.5% methyl cellulose was added up to 100% of the total volume. The solution was applied in a volume of 10 ml/kg b.w. (P.O.) and 10 ml/kg b.w. (I.N.). For I.V. administration the substance was dissolved in DMF. PBS was added up to 100% of the total volume. The solution was applied in a volume of 5 ml/kg b.w. (I.V.)
(§13) The experiment was carried out on approximately eight week old male BALB/CJ mice (IFFA CREDO, Lyon, France), weighing ˜25 g. Animals were weighed, marked and grouped a day before the beginning of the study. After weighing each mouse was given an earmark and placed into a cage (5 mice per cage). […]
(§14) The concentration of the administered compound in biological matrices are calculated by the peak area ratios of compound 1 to an internal standard of roxithromycin using calibration curves and quality control samples.
(§15) Non-compartmental analysis was used for pharmacokinetic analysis in plasma and tissue. The pharmacokinetic parameters were calculated based on average values at each time point using WinNonlin Professional Software, Version 4.1 (Pharsight).
(§16) The pharmacokinetic parameters were calculated as disclosed herein to obtain the bioavailability wherein F=(AUC p.o.(0−∞)/AUC i.v.(0−∞))/(Di.v./Dp.o.).

Method for in vivo: as §12, §13, §14, §15, §16

As a reminder, the bioavailability is the share of a dose that reaches the circulation, judged against a reference dose that is usually intravenous. For the molecule `CC[C@H]1OC(=O)[C@H](C)[C@@H](O[C@H]2C[C@@](C)(OC)[C@@H](O)[C@H](C)O2)[C@H](C)[C@@H](O[C@@H]2O[C@H](C)C[C@H](N(C)C)[C@H]2O)[C@](C)(O)C[C@@H](C)CN(CCCNC(=O)[C@@]2(O)[C@H](C)CC3C4CCC5=CC(=O)C=C[C@]5(C)[C@@]4(F)[C@@H](O)C[C@@]32C)[C@H](C)[C@@H](O)[C@]1(C)O` (stereo partly drawn) [2′], the “efficacy on macroscopic damage score compared with budesonide (1 mg/kg)” value with TNBS induced colitis (FIG. 1A, 2 mg/kg) is recorded as “comparable or superior efficacy to that of the standard steroid budesonide”. In addition, the “efficacy on histological damage score compared with budesonide (1 mg/kg)” value in the series with TNBS induced colitis (FIG. 1B, 2 mg/kg) was “comparable or superior efficacy to that of the standard steroid budesonide”. The bioavailability in the series “in vivo” is less than 1%.

A word on the AUC: it is concentration integrated over time. In series [1], `CCCCN(CCCN1C[C@H](C)C[C@@](C)(O)[C@H](O)[C@@H](C)[C@H](O)[C@@H](C)C(=O)O[C@H](CC)[C@@](C)(O)[C@H](O)[C@H]1C)CCC(=O)O[C@]1(C(=O)OC)[C@H](C)CC2C3C[C@H](F)C4=CC(=O)C=C[C@]4(C)[C@@]3(F)[C@@H](O)C[C@@]21C` (stereo partly drawn) [Compound 9] registered an exposure (AUC) of 390 ng·h/mL.

Turning to `CC[C@H]1OC(=O)[C@H](C)[C@@H](O)[C@H](C)[C@@H](O)[C@](C)(O)C[C@@H](C)CN(CCCNC(=O)[C@H]2[C@H](C)CC3C4CCC5=CC(=O)C=C[C@]5(C)[C@@]4(F)[C@@H](O)C[C@@]32C)[C@H](C)[C@@H](O)[C@]1(C)O` (stereo partly drawn) [drawing 72], in series [2], the oral bioavailability entry was “not measurable”; the “Amounts detected in plasma and blood” value was “below the limits of detection”.

In series [3] (male), `CC[C@H]1OC(=O)[C@H](C)[C@@H](O[C@H]2C[C@@](C)(OC)[C@@H](O)[C@H](C)O2)[C@H](C)[C@@H](O[C@@H]2O[C@H](C)C[C@H](N(C)C)[C@H]2O)[C@](C)(O)C[C@@H](C)CN(CCCNC(=O)c2cccnc2Nc2cccc(C(F)(F)F)c2C)[C@H](C)[C@@H](O)[C@]1(C)O` [4′] showed a bioavailability of 6.9%. Moreover, in series [3], the AUC turned out to be 2180 ng·h/mL and the bioavailability was less than 10%.

Regarding `CC[C@H]1OC(=O)[C@H](C)[C@@H](O)[C@H](C)[C@@H](O)[C@](C)(O)C[C@@H](C)CN(CCCNCCC(=O)O[C@]2(C(=O)OC)[C@H](C)CC3C4C[C@H](F)C5=CC(=O)C=C[C@]5(C)[C@@]4(F)[C@@H](O)C[C@@]32C)[C@H](C)[C@@H](O)[C@]1(C)O` (stereo partly drawn) [Compound 1], in series [4], the oral bioavailability result is on record as “not measurable”. In addition, the area under the curve (AUC) in series [1] was 70 ng·h/mL.

Consider `CCCC1O[C@@H]2C[C@H]3[C@@H]4CCC5=CC(=O)C=C[C@]5(C)[C@H]4[C@@H](O)C[C@]3(C)[C@]2(C(=O)CO)O1` (stereo partly drawn) [Budesonide, budesonide, reference compound], for which the “macroscopic damage score of the colon” value in the series with TNBS induced colitis (FIG. 1A, 1 mg/kg, score 0-6, no treatment control 4) was found to be 2. For the same molecule, the histological damage score in the series with TNBS induced colitis (FIG. 1B, 1 mg/kg, maximum score 10, no treatment control 7,6) was 4,5.

`CC[C@H]1OC(=O)[C@H](C)[C@@H](O)[C@H](C)[C@@H](O[C@@H]2O[C@H](C)C[C@H](N(C)C)[C@H]2O)[C@](C)(O)C[C@@H](C)CN(CCCNC(=O)Cc2c(C)n(C(=O)c3ccc(Cl)cc3)c3ccc(OC)cc23)[C@H](C)[C@@H](O)[C@]1(C)O` [9′]: the bioavailability in series [3] (male) was 2.5%; in series [3], less than 10%. The molecule also registered an AUC in series [3] of 1130 ng·h/mL.

Take `CC[C@H]1OC(=O)C(C)[C@@H](O[C@H]2C[C@@](C)(OC)[C@@H](O)[C@H](C)O2)[C@H](C)[C@@H](O[C@@H]2O[C@H](C)C[C@H](N(C)C)[C@H]2O)[C@](C)(O)C[C@@H](C)/C(=N\OCCCCCNC(=O)[C@@]2(O)[C@H](C)CC3C4CCC5=CC(=O)C=C[C@]5(C)[C@@]4(F)[C@@H](O)C[C@]32C)[C@H](C)[C@@H](O)[C@]1(C)O` (stereo partly drawn) [Compound 5]: in series [2] (30 mg/kg), the oral bioavailability result is “not measurable”; the “Amounts detected in plasma and blood” value is given as “below the limits of detection”.

Consider `CC[C@H]1OC(=O)[C@H](C)[C@@H](O)[C@H](C)[C@@H](O)[C@](C)(O)C[C@@H](C)CN(CCCNC(=O)[C@H]2[C@H](C)CC3C4CCC5=CC(=O)C=C[C@]5(C)[C@@]4(F)[C@@H](O)C[C@@]32C)[C@H](C)[C@@H](O)[C@]1(C)O` (stereo partly drawn) [Compound 1′], for which the “efficacy on macroscopic damage score compared with budesonide (1 mg/kg)” value with TNBS induced colitis (FIG. 1A, 2 mg/kg) is recorded as “comparable or superior efficacy to that of the standard steroid budesonide”; in the series on TNBS induced colitis (FIG. 2, dosages ranging from 4 mg/kg to 0.5 mg/kg), “comparable or superior efficacy to that of the standard steroid budesonide”. In the series on TNBS induced colitis (FIG. 1B, 2 mg/kg), the “efficacy on histological damage score compared with budesonide (1 mg/kg)” value is on record as “comparable or superior efficacy to that of the standard steroid budesonide”.

The molecule `CC[C@H]1OC(=O)[C@H](C)[C@@H](O)[C@H](C)[C@@H](O)[C@](C)(O)C[C@@H](C)CN(CCCN(CC)CCC(=O)O[C@]2(C(=O)OC)[C@H](C)CC3C4C[C@H](F)C5=CC(=O)C=C[C@]5(C)[C@@]4(F)[C@@H](O)C[C@@]32C)[C@H](C)[C@@H](O)[C@]1(C)O` (stereo partly drawn) [Compound 8] showed an AUC in series [1] of 60 ng·h/mL.

Consider `CCCN(CCCN1C[C@H](C)C[C@@](C)(O)[C@H](O)[C@@H](C)[C@H](O)[C@@H](C)C(=O)O[C@H](CC)[C@@](C)(O)[C@H](O)[C@H]1C)CCC(=O)O[C@]1(C(=O)OC)[C@H](C)CC2C3C[C@H](F)C4=CC(=O)C=C[C@]4(C)[C@@]3(F)[C@@H](O)C[C@@]21C` (stereo partly drawn) [Compound 10], for which the AUC in series [1] came out at 60 ng·h/mL.

The molecule `CC[C@H]1OC(=O)[C@H](C)[C@@H](O[C@H]2C[C@@](C)(OC)[C@@H](O)[C@H](C)O2)[C@H](C)C(O[C@@H]2O[C@H](C)C[C@H](N(C)C)[C@H]2O)[C@](C)(O)C[C@@H](C)/C(=N\OCCCCCCNC(=O)CNS(=O)(=O)c2ccc(-n3nc(C(F)(F)F)cc3-c3ccc(C)cc3)cc2)[C@H](C)[C@@H](O)[C@]1(C)O` (stereo partly drawn) [11′] registered a bioavailability in series [3] (male) of less than 1%.

With `CC[C@H]1OC(=O)[C@H](C)[C@@H](O[C@H]2C[C@@](C)(OC)[C@@H](O)[C@H](C)O2)[C@H](C)[C@@H](O[C@@H]2O[C@H](C)C[C@H](N(C)C)[C@H]2O)[C@](C)(O)C[C@@H](C)CN(CCCNC(=O)Cc2c(C)n(C(=O)c3ccc(Cl)cc3)c3ccc(OC)cc23)[C@H](C)[C@@H](O)[C@]1(C)O` [3′], in the series on TNBS induced colitis (FIG. 1A, 10 mg/kg), the “efficacy on macroscopic damage score compared with budesonide (1 mg/kg)” value is reported as “comparable or superior efficacy to that of the standard steroid budesonide”. In addition, in the series with TNBS induced colitis (FIG. 1B, 10 mg/kg), the “efficacy on histological damage score compared with budesonide (1 mg/kg)” value was “comparable or superior efficacy to that of the standard steroid budesonide”. In addition, the bioavailability in series [3] (male) was 3.7%; in series [3] it was less than 10%. Also, the AUC in series [3] was 2580 ng·h/mL.

In turn, `CC[C@H]1OC(=O)[C@H](C)C(OC2C[C@@](C)(OC)[C@@H](O)[C@H](C)O2)[C@H](C)[C@@H](O[C@@H]2O[C@H](C)C[C@H](N(C)CCCNC(=O)[C@]3(O)[C@H](C)CC4C5CCC6=CC(=O)C=C[C@]6(C)[C@@]5(F)[C@@H](O)C[C@@]43C)[C@H]2O)[C@](C)(O)C[C@H](C)CN(C)[C@H](C)[C@@H](O)[C@]1(C)O` (stereo partly drawn) [Compound 6] displayed an AUC in series [1] of 400 ng·h/mL.
